Measured values as given in patent US20120004285A1, “ERBB-3 (HER3)-SELECTIVE COMBINATION THERAPY” (ENZON PHARMACEUTICALS, INC., priority 2008, published 2012).
Oligonucleotides are written 5' to 3', each unit as a sugar letter and its base; * is a phosphorothioate linkage, no mark a phosphodiester; rarer units and linkages stand in square brackets, end groups in braces. Plain capitals give the bases only. l = locked nucleic acid (LNA); [5mC] = 5-methylcytosine; d = 2'-deoxy (DNA)

How the values were obtained:
Type in all cases: cell-based, human
A549 cells = assay: Cell proliferation assay (MTS), A549; conditions: FIG. 1A
Method: (§1) Cells were cultured in the medium as described below and maintained at 37° C. at 95% humidity and 5% CO2. Cells were routinely passaged 2-3 times weekly.
(§2) 15PC-3 (Santaris Pharma): The human prostate cancer cell line 15PC-3 was cultured in DMEM (ATCC)+10% fetal bovine serum (FBS)+2 mM Glutamax™ I+gentamicin (25 μg/ml). A549 (ATCC): The human lung cancer cell line A549 was cultured in F12K Medium (ATCC)+10% FBS+2 mM Glutamax™ I+Penicillin (100 u/ml)/Streptomycin (100 μg/ml). DU145 (ATCC): The human prostate cancer cell line DU145 was cultured in Eagle's Minimum Essential Medium (ATCC)+10% FBS+2 mM Glutamax™ I+Penicillin (100 u/ml)/Streptomycin (100 μg/ml). […]
(§3) . The treated cells were then subjected to proliferation assay by MTS and ErbB3 mRNA quantitation by qRT-PCR, respectively (see below). […]
(§4) The proliferation assay was carried out by using CellTiter 96® Aqueous One solution reagent (Promega, Cat# 358B) following the manufacturer's instructions. […] The absorbance was measured at […] with a reference of 650 nm using an ELISA reader (Molecular Devices). The background for the assay was measured from wells containing only medium and was subtracted from the signal from the wells containing cells. The absorbance at 490 nm (OD490 nm) is proportional to the viable cell number in culture.

DU145 cells = assay: Cell proliferation assay (MTS), DU145; conditions: FIG. 4A
Method: as §1, §2, §3, §4

SKBR3 cells = assay: Cell proliferation assay (MTS), SKBR3; conditions: FIG. 5A
Method: as §1, §2, §3, §4

15PC3 cells = assay: Cell proliferation assay (MTS), 15PC3; conditions: FIG. 3A
Method: as §1, §2, §3, §4

ErbB3 mRNA [1] = assay: ErbB3 mRNA level by qRT-PCR in SKBR3 cells; conditions: ON180 alone, FIG. 5C
Method: (§5) The cells were treated with either ON180 or an LNA-containing oligonucleotide having a scrambled base sequence as set forth in SEQ ID NO: 236 (hereinafter referred to as “ONCONT”) using the cationic liposome formulation Lipofectamine™-2000 (Invitrogen™) as transfection vehicle. Cells were seeded in 6-well plates (NUNC™) and treated when 50-60% confluent. The transfection of cells by ON180 was performed as described by the manufacturer using serum-free OptiMEM® (Gibco™) and 5 μg/ml Lipofectamine™-2000. ONCONT served as a negative control. The treated cells were incubated at 37° C. for 4 hours and then washed with OptiMEM®, after which regular serum-containing medium was added.
(§6) The treated cells were then subjected to proliferation assay by MTS and ErbB3 mRNA quantitation by qRT-PCR, respectively (see below). Each experiment was performed at least two times.
(§7) Total RNA was extracted from the treated cells as described above, using Qiagen RNeasy Plus Mini Kit (Cat# 74134). One-step qRT-PCR was used to examine ErbB3 mRNA levels in the cells by using the QuantiTect Probe RT-PCR kit (Cat#: 204443; Qiagen) according to the manufacturer's instructions. The sequences for the primers and probes were as follows: […]
(§8) The qRT-PCR was performed on the Applied Biosystems 7500 Fast Real-Time PCR System using 120 ng of total RNA sample. GAPDH mRNA served as an internal control.

ErbB3 mRNA [2] = assay: ErbB3 mRNA level by qRT-PCR in 15PC3 cells; conditions: ON180 alone, FIG. 3C
Method: as §5, §6, §7, §8

ErbB3 mRNA [3] = assay: ErbB3 mRNA level by qRT-PCR in A431 cells; conditions: ON180 alone, FIG. 6C
Method: as §5, §6, §7, §8

ErbB3 mRNA [4] = assay: ErbB3 mRNA level by qRT-PCR in H1993 cells; conditions: ON180 alone, FIG. 2C
Method: as §5, §6, §7, §8

H1993 cells = assay: Cell proliferation assay (MTS), H1993; conditions: ON180 alone, Lipofectamine-2000 transfection, FIG. 2A, 2B, read-out: cell growth IC50
Method: (§9) Cells were routinely passaged 2-3 times weekly.
(§10) 15PC-3 (Santaris Pharma): The human prostate cancer cell line 15PC-3 was cultured in DMEM (ATCC)+10% fetal bovine serum (FBS)+2 mM Glutamax™ I+gentamicin (25 μg/ml). A549 (ATCC): The human lung cancer cell line A549 was cultured in F12K Medium (ATCC)+10% FBS+2 mM Glutamax™ I+Penicillin (100 u/ml)/Streptomycin (100 μg/ml). DU145 (ATCC): The human prostate cancer cell line DU145 was cultured in Eagle's Minimum Essential Medium (ATCC)+10% FBS+2 mM Glutamax™ I+Penicillin (100 u/ml)/Streptomycin (100 μg/ml). A431 (ATCC): The human epidermoid cancer cell line A431 was cultured in DMEM (ATCC)+10% fetal bovine serum (FBS)+2 mM Glutamax™ I+Penicillin (100 u/ml)/Streptomycin (100 μg/ml). SKBR-3 (ATCC): The human breast cancer cell line SKBR3 was cultured in McCoy's 5A Medium. Modified (ATCC)+10% FBS+2 mM Glutamax™ I+Penicillin (100 u/ml)/Streptomycin (100 μg/ml).
(§11) Cells were seeded in 6-well plates (NUNC™) and treated when 50-60% confluent. The transfection of cells by ON180 was performed as described by the manufacturer using serum-free OptiMEM® (Gibco™) and 5 μg/ml Lipofectamine™-2000. ONCONT served as a negative control. The treated cells were incubated at 37° C. for 4 hours and then washed with OptiMEM®, after which regular serum-containing medium was added.

A431 cells = assay: Cell proliferation assay (MTS), A431; conditions: ON180 alone, Lipofectamine-2000 transfection, FIG. 6A, 6B, read-out: cell growth IC50
Method: as §9, §10, §11

ErbB3 mRNA [5] = assay: ErbB3 mRNA level by qRT-PCR in DU145 cells; conditions: ON180 alone, FIG. 4C
Method: as §5, §6, §7, §8

ErbB3 mRNA [6] = assay: ErbB3 mRNA level by qRT-PCR in A549 cells; conditions: ON180 alone, FIG. 1C, read-out: expression of ErbB3 mRNA IC50
Method: as §5, §6, §7, §8

Molecule: COc1cc2ncnc(Nc3ccc(F)c(Cl)c3)c2cc1OCCCN1CCOCC1 [gefitinib, reference compound]
- effect of gefitinib alone on proliferation (A549 cells; gefitinib 40 μM, 48 hours): did not affect proliferation
- effect of gefitinib on proliferation (DU145 cells; gefitinib 40 μM, 48 hours): did not affect proliferation
- sensitivity of cells to gefitinib (SKBR3 cells; gefitinib alone): sensitive
- effect of gefitinib on proliferation (15PC3 cells; gefitinib 20 μM, 48 hours): did not affect proliferation

Molecule: 5′-TsAsGscscstsgstscsascststs^MeCsTs^MeC-3′ (lT*lA*lG*dC*dC*dT*dG*dT*dC*dA*dC*dT*dT*l[5mC]*lT*l[5mC]) [ON180]
- expression of ErbB3 mRNA (ErbB3 mRNA [1]): effectively inhibited
- IC50 (A549 cells; ON180 alone, Lipofectamine-2000 transfection, 1B, read-out: cell growth IC50): < 5 nM
- ErbB3 mRNA (ErbB3 mRNA [2]): potently inhibited
- IC50 (DU145 cells; ON180 alone, Lipofectamine-2000 transfection, 4B, read-out: cell growth IC50): < 5 nM
- ErbB3 mRNA (ErbB3 mRNA [3]): effectively inhibited
- expression of ErbB3 mRNA (ErbB3 mRNA [4]): potently inhibited
- IC50 (SKBR3 cells; ON180 alone, Lipofectamine-2000 transfection, 5B, read-out: cell growth IC50): < 5 nM
- IC50 (H1993 cells): 1 nM
- IC50 (A431 cells): < 1 nM
- IC50 (15PC3 cells; ON180 alone, Lipofectamine-2000 transfection, 3B, read-out: cell growth IC50): < 2 nM
- expression of ErbB3 mRNA (ErbB3 mRNA [5]): effectively inhibited
- IC50 (ErbB3 mRNA [6]): < 2 nM
